According to ChEMBL document CHEMBL3991601, “The target landscape of clinical kinase drugs” (Science, 2017):
Calls of active or inactive are those of the source. Cut-off read from the data, not from the text of the source, for most assays here: actives have a measured Kd and inactives only a lower limit.

Tests used:
[1] = molecular target: Serine/threonine-protein kinase pim-1 (Homo sapiens, UniProt P11309)
[2] = molecular target: T1, Interleukin-1 receptor-associated kinase 3 (Homo sapiens, UniProt Q9Y616)
T1 sequence (Q9Y616 whole entry): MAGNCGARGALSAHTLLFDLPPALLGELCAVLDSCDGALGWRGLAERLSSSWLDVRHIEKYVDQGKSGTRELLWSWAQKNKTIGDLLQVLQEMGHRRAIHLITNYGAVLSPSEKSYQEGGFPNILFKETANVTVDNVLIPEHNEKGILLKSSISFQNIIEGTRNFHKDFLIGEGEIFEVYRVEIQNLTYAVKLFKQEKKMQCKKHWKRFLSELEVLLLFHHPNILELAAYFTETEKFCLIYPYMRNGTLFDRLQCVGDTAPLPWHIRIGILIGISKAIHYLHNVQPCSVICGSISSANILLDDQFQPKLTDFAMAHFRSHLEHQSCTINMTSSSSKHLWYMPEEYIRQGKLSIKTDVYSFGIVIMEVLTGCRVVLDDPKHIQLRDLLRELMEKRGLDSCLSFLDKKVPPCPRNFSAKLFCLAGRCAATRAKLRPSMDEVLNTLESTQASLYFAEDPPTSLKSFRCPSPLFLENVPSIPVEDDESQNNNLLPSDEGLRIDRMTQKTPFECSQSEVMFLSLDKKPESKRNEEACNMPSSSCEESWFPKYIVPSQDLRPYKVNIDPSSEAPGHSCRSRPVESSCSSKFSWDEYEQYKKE

[3] = molecular target: Protein-tyrosine kinase 6 (Homo sapiens, UniProt Q13882)
[4] = molecular target: Calcium/calmodulin-dependent protein kinase type II subunit delta (Homo sapiens, UniProt Q13557)
Heme oxygenase 2 = molecular target: T2, Heme oxygenase 2 (Homo sapiens, UniProt P30519)
T2 sequence (P30519 whole entry): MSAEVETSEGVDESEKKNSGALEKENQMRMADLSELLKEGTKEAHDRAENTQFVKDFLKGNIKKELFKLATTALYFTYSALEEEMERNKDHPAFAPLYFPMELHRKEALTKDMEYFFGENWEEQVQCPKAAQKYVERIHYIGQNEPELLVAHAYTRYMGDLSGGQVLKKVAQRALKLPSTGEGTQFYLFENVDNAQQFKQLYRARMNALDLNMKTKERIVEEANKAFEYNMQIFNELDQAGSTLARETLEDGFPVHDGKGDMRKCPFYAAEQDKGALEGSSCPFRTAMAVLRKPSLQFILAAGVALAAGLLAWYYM

[5] = molecular target: Receptor-interacting serine/threonine-protein kinase 3 (Homo sapiens, UniProt Q9Y572)
[6] = molecular target: Mitogen-activated protein kinase 9 (Homo sapiens, UniProt P45984)
[7] = molecular target: 26S proteasome regulatory subunit 6B (Homo sapiens, UniProt P43686)
[8] = molecular target: T3, Serine/threonine-protein kinase TAO2 (Homo sapiens, UniProt Q9UL54)
T3 sequence (Q9UL54 whole entry): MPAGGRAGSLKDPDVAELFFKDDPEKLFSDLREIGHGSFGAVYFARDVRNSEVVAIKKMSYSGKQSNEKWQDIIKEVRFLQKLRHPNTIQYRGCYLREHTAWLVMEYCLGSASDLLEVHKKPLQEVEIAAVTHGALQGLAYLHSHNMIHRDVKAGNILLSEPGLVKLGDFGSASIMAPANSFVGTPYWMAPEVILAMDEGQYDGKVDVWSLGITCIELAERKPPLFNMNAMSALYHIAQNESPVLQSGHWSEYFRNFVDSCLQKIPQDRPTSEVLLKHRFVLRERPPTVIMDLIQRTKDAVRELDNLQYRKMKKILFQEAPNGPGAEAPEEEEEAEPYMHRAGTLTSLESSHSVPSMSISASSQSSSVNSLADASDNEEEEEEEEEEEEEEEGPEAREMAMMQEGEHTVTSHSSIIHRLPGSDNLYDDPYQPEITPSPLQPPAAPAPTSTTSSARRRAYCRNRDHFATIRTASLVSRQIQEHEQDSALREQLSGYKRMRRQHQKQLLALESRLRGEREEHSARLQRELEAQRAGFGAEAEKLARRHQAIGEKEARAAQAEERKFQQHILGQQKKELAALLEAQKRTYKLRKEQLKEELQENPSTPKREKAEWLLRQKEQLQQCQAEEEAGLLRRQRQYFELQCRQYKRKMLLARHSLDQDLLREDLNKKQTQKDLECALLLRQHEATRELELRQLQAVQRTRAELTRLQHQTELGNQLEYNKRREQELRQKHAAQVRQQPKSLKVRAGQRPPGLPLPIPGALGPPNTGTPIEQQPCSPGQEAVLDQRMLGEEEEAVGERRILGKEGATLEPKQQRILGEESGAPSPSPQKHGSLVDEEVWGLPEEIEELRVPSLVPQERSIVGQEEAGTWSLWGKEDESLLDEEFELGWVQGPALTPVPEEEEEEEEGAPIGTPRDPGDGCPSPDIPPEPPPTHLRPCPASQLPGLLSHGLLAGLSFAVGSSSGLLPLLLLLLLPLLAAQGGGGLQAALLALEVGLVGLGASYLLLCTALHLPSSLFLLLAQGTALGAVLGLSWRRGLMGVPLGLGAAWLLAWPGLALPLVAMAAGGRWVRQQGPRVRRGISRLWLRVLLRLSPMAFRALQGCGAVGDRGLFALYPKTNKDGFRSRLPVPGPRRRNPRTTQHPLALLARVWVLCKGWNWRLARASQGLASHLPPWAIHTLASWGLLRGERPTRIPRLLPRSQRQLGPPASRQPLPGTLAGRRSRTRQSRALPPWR

LIM domain kinase 1 = LIM domain kinase 1 (Homo sapiens, UniProt P53667)
[9] = molecular target: Tyrosine-protein kinase HCK (Homo sapiens, UniProt P08631)
[10] = molecular target: Guanine nucleotide-binding protein G(i) subunit alpha-2 (Homo sapiens, UniProt P04899)
[11] = molecular target: Epithelial discoidin domain-containing receptor 1 (Homo sapiens, UniProt Q08345)
Note: in the data inactive means no Kd found up to 30 µM.

Chain of Serine/threonine-protein kinase pim-1 (P11309 whole entry): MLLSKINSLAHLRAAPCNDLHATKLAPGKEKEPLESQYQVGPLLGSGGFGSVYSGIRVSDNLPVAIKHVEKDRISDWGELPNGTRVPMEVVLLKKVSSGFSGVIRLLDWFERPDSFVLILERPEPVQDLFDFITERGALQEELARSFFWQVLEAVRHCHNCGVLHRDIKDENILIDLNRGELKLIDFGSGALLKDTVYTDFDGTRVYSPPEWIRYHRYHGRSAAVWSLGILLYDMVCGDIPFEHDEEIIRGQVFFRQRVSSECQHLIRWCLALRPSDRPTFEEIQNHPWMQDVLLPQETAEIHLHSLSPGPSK
Chain of Receptor-interacting serine/threonine-protein kinase 3 (Q9Y572 whole entry): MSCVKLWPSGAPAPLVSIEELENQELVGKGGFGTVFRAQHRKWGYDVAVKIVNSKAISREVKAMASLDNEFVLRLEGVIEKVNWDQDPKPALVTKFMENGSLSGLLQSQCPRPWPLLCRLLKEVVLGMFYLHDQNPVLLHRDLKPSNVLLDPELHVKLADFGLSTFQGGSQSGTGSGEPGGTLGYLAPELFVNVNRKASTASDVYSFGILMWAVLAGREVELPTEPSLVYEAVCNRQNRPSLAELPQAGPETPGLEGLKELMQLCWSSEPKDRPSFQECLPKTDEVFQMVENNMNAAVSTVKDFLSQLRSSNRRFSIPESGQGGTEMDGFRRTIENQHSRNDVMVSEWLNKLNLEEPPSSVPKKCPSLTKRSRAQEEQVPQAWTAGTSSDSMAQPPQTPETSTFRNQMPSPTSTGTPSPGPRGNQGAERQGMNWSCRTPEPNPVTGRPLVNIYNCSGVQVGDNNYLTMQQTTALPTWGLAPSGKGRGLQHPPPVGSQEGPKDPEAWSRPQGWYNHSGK
Chain of Guanine nucleotide-binding protein G(i) subunit alpha-2 (P04899 whole entry, the tested form may be a part): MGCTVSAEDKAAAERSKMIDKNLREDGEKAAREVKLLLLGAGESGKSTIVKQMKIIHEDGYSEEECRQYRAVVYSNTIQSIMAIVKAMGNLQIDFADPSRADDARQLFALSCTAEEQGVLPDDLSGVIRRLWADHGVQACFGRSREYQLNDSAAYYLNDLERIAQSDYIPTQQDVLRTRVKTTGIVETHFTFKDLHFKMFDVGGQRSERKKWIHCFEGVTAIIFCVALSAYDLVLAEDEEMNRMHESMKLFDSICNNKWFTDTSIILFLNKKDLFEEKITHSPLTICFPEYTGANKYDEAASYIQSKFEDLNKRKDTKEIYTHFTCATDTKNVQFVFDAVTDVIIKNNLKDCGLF
Chain of Mitogen-activated protein kinase 9 (P45984 whole entry): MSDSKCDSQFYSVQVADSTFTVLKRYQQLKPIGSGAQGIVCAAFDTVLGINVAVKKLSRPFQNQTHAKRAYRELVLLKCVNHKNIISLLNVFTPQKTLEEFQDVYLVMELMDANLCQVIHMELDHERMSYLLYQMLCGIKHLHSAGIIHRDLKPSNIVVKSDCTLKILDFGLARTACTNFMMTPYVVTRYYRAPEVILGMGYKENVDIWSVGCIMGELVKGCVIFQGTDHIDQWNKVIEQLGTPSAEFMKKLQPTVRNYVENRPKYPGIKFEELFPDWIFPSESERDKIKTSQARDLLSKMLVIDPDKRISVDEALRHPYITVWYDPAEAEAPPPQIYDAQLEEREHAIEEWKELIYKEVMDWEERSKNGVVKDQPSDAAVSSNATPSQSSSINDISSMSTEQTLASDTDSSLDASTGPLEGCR
Chain of LIM domain kinase 1 (P53667 whole entry, the tested form may be a part): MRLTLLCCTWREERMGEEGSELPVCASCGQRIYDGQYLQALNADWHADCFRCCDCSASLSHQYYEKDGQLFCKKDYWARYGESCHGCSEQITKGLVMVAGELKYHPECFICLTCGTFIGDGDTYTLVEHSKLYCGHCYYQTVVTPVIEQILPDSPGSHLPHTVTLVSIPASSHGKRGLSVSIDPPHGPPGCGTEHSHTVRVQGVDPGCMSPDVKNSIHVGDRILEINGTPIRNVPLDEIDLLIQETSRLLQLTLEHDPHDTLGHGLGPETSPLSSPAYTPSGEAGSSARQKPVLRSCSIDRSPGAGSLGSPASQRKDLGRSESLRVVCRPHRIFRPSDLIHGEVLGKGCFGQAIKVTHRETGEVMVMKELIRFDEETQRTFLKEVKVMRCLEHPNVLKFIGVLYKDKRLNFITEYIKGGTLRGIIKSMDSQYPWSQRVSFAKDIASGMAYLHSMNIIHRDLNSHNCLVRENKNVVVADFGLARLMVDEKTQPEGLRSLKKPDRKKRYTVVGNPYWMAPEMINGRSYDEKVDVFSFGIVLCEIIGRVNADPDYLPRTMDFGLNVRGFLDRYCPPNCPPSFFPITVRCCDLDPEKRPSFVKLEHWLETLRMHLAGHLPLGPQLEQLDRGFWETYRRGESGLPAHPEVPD
Chain of 26S proteasome regulatory subunit 6B (P43686 whole entry): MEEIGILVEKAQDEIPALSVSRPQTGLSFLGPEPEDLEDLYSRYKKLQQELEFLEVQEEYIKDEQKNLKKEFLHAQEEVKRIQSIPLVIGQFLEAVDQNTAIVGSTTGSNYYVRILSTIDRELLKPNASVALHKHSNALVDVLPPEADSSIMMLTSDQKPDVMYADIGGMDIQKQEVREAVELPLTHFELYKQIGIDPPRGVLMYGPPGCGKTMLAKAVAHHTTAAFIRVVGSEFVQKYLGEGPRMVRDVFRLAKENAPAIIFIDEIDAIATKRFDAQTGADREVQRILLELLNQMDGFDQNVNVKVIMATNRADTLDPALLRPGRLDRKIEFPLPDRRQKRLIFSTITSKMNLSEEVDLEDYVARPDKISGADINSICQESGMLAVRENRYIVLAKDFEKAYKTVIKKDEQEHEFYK
Chain of Calcium/calmodulin-dependent protein kinase type II subunit delta (Q13557 whole entry): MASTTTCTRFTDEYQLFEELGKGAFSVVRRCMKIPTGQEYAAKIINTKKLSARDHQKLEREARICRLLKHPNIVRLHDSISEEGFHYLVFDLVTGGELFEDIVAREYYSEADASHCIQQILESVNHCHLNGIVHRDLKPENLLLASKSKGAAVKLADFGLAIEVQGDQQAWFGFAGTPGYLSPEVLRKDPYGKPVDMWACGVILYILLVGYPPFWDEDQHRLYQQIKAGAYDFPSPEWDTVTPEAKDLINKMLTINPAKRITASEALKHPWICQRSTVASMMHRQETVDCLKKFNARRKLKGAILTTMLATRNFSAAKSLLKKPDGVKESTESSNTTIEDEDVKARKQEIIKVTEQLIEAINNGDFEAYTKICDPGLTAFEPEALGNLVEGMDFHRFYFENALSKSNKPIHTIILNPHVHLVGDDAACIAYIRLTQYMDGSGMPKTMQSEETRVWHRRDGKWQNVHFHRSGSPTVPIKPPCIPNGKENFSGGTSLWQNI
Chain of Tyrosine-protein kinase HCK (P08631 whole entry): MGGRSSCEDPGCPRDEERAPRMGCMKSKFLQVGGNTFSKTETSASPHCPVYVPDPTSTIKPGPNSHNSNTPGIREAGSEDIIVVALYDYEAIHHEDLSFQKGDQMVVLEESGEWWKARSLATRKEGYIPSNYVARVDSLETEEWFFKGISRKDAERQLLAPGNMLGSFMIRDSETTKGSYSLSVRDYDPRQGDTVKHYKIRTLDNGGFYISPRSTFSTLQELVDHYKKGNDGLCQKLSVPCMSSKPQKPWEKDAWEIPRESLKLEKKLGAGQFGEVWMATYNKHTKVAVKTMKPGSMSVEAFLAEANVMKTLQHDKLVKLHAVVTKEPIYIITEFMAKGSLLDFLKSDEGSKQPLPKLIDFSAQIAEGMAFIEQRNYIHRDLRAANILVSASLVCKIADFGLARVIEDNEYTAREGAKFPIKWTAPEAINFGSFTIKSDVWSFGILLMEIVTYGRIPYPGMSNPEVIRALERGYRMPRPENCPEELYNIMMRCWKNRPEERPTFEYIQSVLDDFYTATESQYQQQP
Chain of Protein-tyrosine kinase 6 (Q13882 whole entry): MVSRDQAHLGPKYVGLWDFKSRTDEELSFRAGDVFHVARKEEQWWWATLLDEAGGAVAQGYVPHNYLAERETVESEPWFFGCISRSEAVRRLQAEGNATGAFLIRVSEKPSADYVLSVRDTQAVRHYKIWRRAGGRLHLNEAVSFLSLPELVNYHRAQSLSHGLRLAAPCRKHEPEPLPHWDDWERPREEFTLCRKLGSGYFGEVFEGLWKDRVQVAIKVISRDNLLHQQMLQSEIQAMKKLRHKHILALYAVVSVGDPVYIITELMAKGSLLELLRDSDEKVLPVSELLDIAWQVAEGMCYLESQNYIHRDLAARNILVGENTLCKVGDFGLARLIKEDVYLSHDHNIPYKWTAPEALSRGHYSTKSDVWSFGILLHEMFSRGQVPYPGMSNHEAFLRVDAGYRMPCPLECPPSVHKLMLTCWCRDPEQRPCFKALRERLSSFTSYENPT

SMILES | Kd [1] | Kd [2] | Kd [3] | Kd [4] | Kd (Heme oxygenase 2) | Kd [5] | Kd [6] | Kd [7] | Kd [8] | Kd (LIM domain kinase 1) | Kd [9] | Kd [10] | Kd [11]
COc1cc2nccc(Oc3ccc(NC(=O)C4(C(=O)Nc5ccc(F)cc5)CC4)cc3)c2cc1OC [CABOZANTINIB] | > 30 µM (inactive) | > 30 µM (inactive) | 1.76 µM (active) | > 30 µM (inactive) | > 30 µM (inactive) | 2.46 µM (active) | > 30 µM (inactive) | > 30 µM (inactive) | > 30 µM (inactive) | > 30 µM (inactive) | 1.1 µM (active) | > 30 µM (inactive) | 0.209 µM (active)
O=C(Nc1ccc(OC(F)(F)F)cc1)c1sccc1NCc1ccnc2ccccc12 [OSI-930] | > 30 µM (inactive) | > 30 µM (inactive) | > 30 µM (inactive) | > 30 µM (inactive) | > 30 µM (inactive) | 1.7 µM (active) | > 30 µM (inactive) | > 30 µM (inactive) | > 30 µM (inactive) | > 30 µM (inactive) | > 30 µM (inactive) | > 30 µM (inactive) | > 30 µM (inactive)
Cc1cc(Nc2nc(N[C@@H](C)c3ncc(F)cn3)ncc2Cl)n[nH]1 [AZD-1480] | > 30 µM (inactive) | > 30 µM (inactive) | > 30 µM (inactive) | > 30 µM (inactive) | > 30 µM (inactive) | > 30 µM (inactive) | > 30 µM (inactive) | > 30 µM (inactive) | > 30 µM (inactive) | > 30 µM (inactive) | > 30 µM (inactive) | > 30 µM (inactive) | > 30 µM (inactive)
COc1cccc(Nc2ncnn3ccc(CN4CC[C@@H](N)[C@H](O)C4)c23)c1 [BMS-690514] | > 30 µM (inactive) | > 30 µM (inactive) | > 30 µM (inactive) | 0.703 µM (active) | > 30 µM (inactive) | > 30 µM (inactive) | > 30 µM (inactive) | > 30 µM (inactive) | > 30 µM (inactive) | > 30 µM (inactive) | 0.712 µM (active) | > 30 µM (inactive) | > 30 µM (inactive)
COc1cc2ncnc3c2cc1OCCCCCN(C)Cc1ccc(Br)cc1N3 [JNJ-26483327] | > 30 µM (inactive) | > 30 µM (inactive) | > 30 µM (inactive) | > 30 µM (inactive) | > 30 µM (inactive) | > 30 µM (inactive) | > 30 µM (inactive) | > 30 µM (inactive) | > 30 µM (inactive) | > 30 µM (inactive) | > 30 µM (inactive) | > 30 µM (inactive) | > 30 µM (inactive)
CCc1cc2c(cc1N1CCC(N3CCOCC3)CC1)C(C)(C)c1[nH]c3cc(C#N)ccc3c1C2=O [ALECTINIB] | > 30 µM (inactive) | > 30 µM (inactive) | > 30 µM (inactive) | > 30 µM (inactive) | > 30 µM (inactive) | > 30 µM (inactive) | > 30 µM (inactive) | > 30 µM (inactive) | > 30 µM (inactive) | > 30 µM (inactive) | > 30 µM (inactive) | > 30 µM (inactive) | > 30 µM (inactive)
Cc1cc(-c2cc(OC(=O)c3ccccc3)ccc2Cl)cc2nnc(Nc3ccc(OCCN4CCCC4)cc3)nc12 [TG100-801] | > 30 µM (inactive) | > 30 µM (inactive) | > 30 µM (inactive) | > 30 µM (inactive) | > 30 µM (inactive) | > 30 µM (inactive) | > 30 µM (inactive) | > 30 µM (inactive) | > 30 µM (inactive) | > 30 µM (inactive) | > 30 µM (inactive) | > 30 µM (inactive) | 1.73 µM
CC(C)(O)CC(=O)NCCn1ccc2ncnc(Nc3ccc(Oc4cccc(C(F)(F)F)c4)c(Cl)c3)c21 [TAK-285] | > 30 µM (inactive) | > 30 µM (inactive) | > 30 µM (inactive) | > 30 µM (inactive) | > 30 µM (inactive) | > 30 µM (inactive) | > 30 µM (inactive) | > 30 µM (inactive) | > 30 µM (inactive) | > 30 µM (inactive) | > 30 µM (inactive) | > 30 µM (inactive) | > 30 µM (inactive)
Cc1cc(C(=O)Nc2cc(Oc3ccc4nc(NC(=O)C5CC5)cn4n3)ccc2C)n(C)n1 [TAK-593] | > 30 µM (inactive) | > 30 µM (inactive) | > 30 µM (inactive) | > 30 µM (inactive) | > 30 µM (inactive) | > 30 µM (inactive) | > 30 µM (inactive) | > 30 µM (inactive) | > 30 µM (inactive) | > 30 µM (inactive) | > 30 µM (inactive) | > 30 µM (inactive) | 14.7 µM (active)
NC[C@@](O)(c1ccc(Cl)cc1)c1ccc(-c2cn[nH]c2)cc1 [AT-13148] | > 30 µM (inactive) | > 30 µM (inactive) | > 30 µM (inactive) | > 30 µM (inactive) | > 30 µM (inactive) | > 30 µM (inactive) | > 30 µM (inactive) | > 30 µM (inactive) | > 30 µM (inactive) | > 30 µM (inactive) | > 30 µM (inactive) | > 30 µM (inactive) | > 30 µM (inactive)
Cc1c(NC(=O)OC[C@@H]2COCCN2)cn2ncnc(Nc3ccc4c(cnn4Cc4cccc(F)c4)c3)c12 [AC-480] | > 30 µM (inactive) | > 30 µM (inactive) | > 30 µM (inactive) | > 30 µM (inactive) | > 30 µM (inactive) | > 30 µM (inactive) | > 30 µM (inactive) | > 30 µM (inactive) | > 30 µM (inactive) | > 30 µM (inactive) | > 30 µM (inactive) | > 30 µM (inactive) | > 30 µM (inactive)
CC(C)CC(=O)Nc1[nH]nc2c1CN(C(=O)C1CCN(C)CC1)C2(C)C [PHA-793887] | > 30 µM (inactive) | > 30 µM (inactive) | > 30 µM (inactive) | > 30 µM (inactive) |  | > 30 µM (inactive) | > 30 µM (inactive) | > 30 µM (inactive) | > 30 µM (inactive) | > 30 µM (inactive) | > 30 µM (inactive) | > 30 µM (inactive) | > 30 µM (inactive)
